Values belong to the molecule of their own block, whether it stands above or below them.
How the values were obtained:
[1] = system: human colorectal carcinoma HCT116 cells; test: MTT cytotoxicity assay, HCT116 cells; format: cell-based; settings: maximum over the cells tested (HCT116)
Description: The absorbance was measured at 570 and 630 nm. […].

[2] = system: cisplatin-resistant A549cisR cells; test: MTT cytotoxicity assay, A549cisR cells
Description: (§1) Human ovarian carcinoma A2780 and cisplatin-resistant A2780cisR cells were cultured in RPMI 1640 with 10% FBS and 100 units penicillin/streptomycin. Human breast adenocarcinoma MCF-7, human colorectal carcinoma HCT116, human lung carcinoma A549, and cisplatin-resistant A549cisR cells were cultured in DMEM containing 10% FBS and 100 units penicillin/streptomycin. Human fetal lung fibroblast MRC-5 cells were cultured in MEM with 10% FBS, 1% L-glutamine, 1% non-essential amino acids, and 1% sodium pyruvate. […] All cells were incubated at 37° C. in 5% CO2.
(§2) For each of these assays, cells were seeded in 96-well plates at a certain density. For instance, A2780 cells were seeded in a 96-well plate at the density of 1,500 cells per well and incubated till the confluence reached about 30%. Cells were then treated with medium containing varying concentrations of compounds for 72 h at 37° C. in 5% CO2. […] For MTT assay, after incubation for 72 h, the medium containing compounds was replaced by FBS-free medium with 1 mg/mL MTT for 4 h incubation. DMSO was added to each well when the medium containing MTT was removed after incubation. The absorbance was measured at 570 and 630 nm. Cells incubated with medium containing 1% DMF only were used as controls. The seeded cell density for A549, MCF-7 and HCT116 was 1,500 cells/well, and for A2780cisR, A549cisR, and MRC-5 was 2,500 cells were seeded to each well. The absorbance was tested at 570 and 630 nm.
(§3) Values are the average of the 96-wells for each tested compound, and the reported errors are the corresponding standard deviations.

[3] = system: cisplatin-resistant A2780cisR cells; test: MTT cytotoxicity assay, A2780cisR cells
Description: as §1, §2, §3

[4] = MTT cytotoxicity assay, MRC-5 normal cells; settings: human, MRC-5 fetal lung fibroblast cells (normal cells)
Description: as §1, §2, §3

[5] = system: Human ovarian carcinoma A2780 cells
Description: as §1
(§4) For each of these assays, cells were seeded in 96-well plates at a certain density. For instance, A2780 cells were seeded in a 96-well plate at the density of 1,500 cells per well and incubated till the confluence reached about 30%. Cells were then treated with medium containing varying concentrations of compounds for 72 h at 37° C. in 5% CO2. […] For MTT assay, after incubation for 72 h, the medium containing compounds was replaced by FBS-free medium with 1 mg/mL MTT for 4 h incubation. DMSO was added to each well when the medium containing MTT was removed after incubation. The absorbance was measured at 570 and 630 nm. Cells incubated with medium containing 1% DMF only were used as controls. […] The absorbance was tested at 570 and 630 nm. […]

[6] = system: cisplatin-resistant A2780cisR cells
Description: as §1, §2, §3

[7] = system: human lung carcinoma A549 cells
Description: as §1, §4

[8] = system: cisplatin-resistant A549cisR cells
Description: as §1, §2, §3

[9] = system: Human breast adenocarcinoma MCF-7 cells
Description: Human breast adenocarcinoma MCF-7, human colorectal carcinoma HCT116, human lung carcinoma A549, and cisplatin-resistant A549cisR cells were cultured in DMEM containing 10% FBS and 100 units penicillin/streptomycin. […] All cells were incubated at 37° C. in 5% CO2.
as §2, §3

[10] = system: Human fetal lung fibroblast MRC-5 cells
Description: as §1, §2, §3

Molecule: [NH2][Pt]([NH2])([OH])([Cl])([Cl])[O]C(=O)COc1ccc(/C=C/C(=O)c2ccc(Cl)c(Cl)c2)cc1 [monochalcoPt(IV)]
fold increase in cytotoxicity compared with cisplatin [1]: ≤ 422 fold
IC50 (cytotoxicity, MTT assay) ([2]; A549cisR cells, 72 h drug treatment): nanomolar
IC50 (cytotoxicity, MTT assay) ([3]; A2780cisR cells, 72 h drug treatment): nanomolar
IC50 at 72 h [4]: 0.11 ± 0.03 µM

Molecule: N.N.[Cl][Pt][Cl] [cDDP, cis-diamminedichloroplatinum]
RF (Resistant Factor) ([2]; IC50 in A549cisR/IC50 in A549 cells): 4.3
RF (Resistant Factor) ([3]; IC50 in A2780CisR/IC50 in A2780 cells): 16

IC50 [5]: > 35 µM
IC50 [6]: > 35 µM
IC50 [7]: > 40 µM
IC50 [8]: > 40 µM
IC50 [9]: > 50 µM
IC50 [10]: 65.1 ± 9 µM
Molecule: Chalcone

Molecule: [NH2][Pt]([NH2])([Cl])([Cl])([O]C(=O)COc1ccc(/C=C/C(=O)c2ccc(Cl)c(Cl)c2)cc1)[O]C(=O)COc1ccc(/C=C/C(=O)c2ccc(Cl)c(Cl)c2)cc1 [chalcoplatin]
IC50 at 72 h [4]: 9 ± 0.4 µM
